Measurements: US20080269323A1, “USE OF 4-(NITROOXY)-BUTYL-(S)-2-(6-METHOXY-2-NAPHTHYL)-PROPANOATE FOR TREATING PAIN AND INFLAMMATION” (NICOX S.A., priority 2007, published 2008)

Experiments:
PGE2 = experiment: Urinary PGE2 production levels; type: in vivo, rat; conditions: rats, oral, two weeks; naproxcinod 14.5 mg/kg, naproxen 10 mg/kg
[1] = Urine flow rate during water-load; type: in vivo, rat; conditions: water-load (90 min) compared to baseline; rats, oral, two weeks
Protocol: After obtaining a set of baseline images, hypotonic glucose-saline (0.25% NaCl, 0.5% glucose) at 1.5 ml/100 g body weight/hr was infused intravenously via the femoral catheter for 2 hours to induce the water-diuresis.

Row | Increase in urine flow during water-load (in words) [1] | Structure (SMILES) | Urinary PGE2 production levels (in words) (PGE2)
1 | substantially less increase | COc1ccc2cc([C@H](C)C(=O)OCCCCO[N+](=O)[O-])ccc2c1 [Naproxcinod, 4-(Nitrooxy)-butyl-(S)-2-(6-methoxy-2-naphthyl)-propanoate] | reduced
2 | substantially less increase | COc1ccc2cc([C@H](C)C(=O)O)ccc2c1 [Naproxen, naproxen] | reduced
